Assay results reported in PMC6784244 (Toxins, 2019).
≈ marks a conversion by molar mass, not a printed value.

Legend:
[1] = tested on: BEAS-2B (human normal lung epithelial cells); type: cell-based; settings: 48 h exposure, 0-100 µM, resazurin fluorescence; means ± S.D, n = 3; read-out: IC50 on cell viability, BEAS-2B
Protocol: (§1) The impact of ENN or BEA on the viability of human cells were evaluated as previously described. Cells used were human normal lung epithelial cells BEAS-2B (ATCC CRL-9609), human intestinal cell line Caco-2 (ATCC HTB-37), human normal epidermal keratinocytes (HEK) (from Lonza), human liver cell line HEPG2 (ATCC HB-8065), human normal endothelial cells (Human Umbilical Vein Endothelial Cells, HUVEC) (from Sigma-Aldrich, Lyon, France), and human gastric cell line N87 (ATCC CRL-5822). BEAS-2B, Caco-2 and HEPG2 cells were cultured in DMEM supplemented with 10% fetal calf serum (FCS), 1% L-glutamine, and 1% antibiotics (all from Invitrogen (Carlsbad, CA, USA). N87 cells were cultured in RPMI media supplemented with 10% fetal calf serum (FCS), 1% L-glutamine, and 1% antibiotics (all from Invitrogen, Carlsbad, CA, USA). HEK and HUVEC cells were cultured in specific medium (from Lonza and Sigma Aldrich, respectively). Cells were routinely grown on 25 cm^2 flasks and maintained in a 5% CO2 incubator at 37 °C. For toxicity assay, human cells grown on 25 cm^2 flasks were detached using trypsin-EDTA solution (from Thermofisher), counted using Malassez counting chamber, diluted in appropriate culture media, and seeded into 96-well cell culture plates (Greiner bio-one, Paris, France) at approximately 10^4 cells per well. The cells were left to grow for 48–72 h at 37 °C in a 5% CO2 incubator until they reached confluence. Media from wells was then aspirated and cells were treated with 100 µL of appropriate culture media containing increasing concentrations of ENN or BEA (from 0 to 100 µM, 1:2 serial dilution). […] The plates were then incubated at 37 °C for 48 h. Resazurin-based in vitro toxicity assay kit (from Sigma-Aldrich, Lyon, France) was then used to assess the viability of the cells following manufacturer’s instructions. Briefly, resazurin stock solution was diluted 1:10 in sterile PBS containing calcium and magnesium (PBS^++, pH 7.4). Plates were aspirated and 100 µL of the diluted solution were added per wells. After 4 h incubation at 37 °C, fluorescence intensity was measured using microplate reader (Biotek, Synergy Mx, Colmar, France) with an excitation wavelength of 530 nm and an emission wavelength of 590 nm. The fluorescence values were normalized by the controls (untreated cells) and expressed as percentage of cell viability. The IC50 values of ENN or BEA (i.e., the concentrations causing a reduction of 50% of the cell viability) were calculated using GraphPad® Prism 7 software (San Diego, CA, USA). Experiments were conducted in triplicate (n = 3).

[2] = tested on: Caco-2 (human intestinal cell line); type: cell-based; settings: 48 h exposure, 0-100 µM, resazurin fluorescence; means ± S.D, n = 3; read-out: IC50 on cell viability, Caco-2
Protocol: as §1

[3] = tested on: HEPG2 (human liver cell line); type: cell-based; settings: 48 h exposure, 0-100 µM, resazurin fluorescence; means ± S.D, n = 3; read-out: IC50 on cell viability, HEPG2
Protocol: as §1

[4] = tested on: HUVEC (human normal endothelial cells); type: cell-based; settings: 48 h exposure, 0-100 µM, resazurin fluorescence; means ± S.D, n = 3; read-out: IC50 on cell viability, HUVEC
Protocol: as §1

C. perfringens [5] = type: cell-based, Clostridium perfringens
C. perfringens [6] = type: cell-based, Clostridium perfringens; remark: listed apart in the source
[7] = tested on: Nisin-resistant B. subtilis (DSMZ 347)
[8] = tested on: Methicillin-resistant S. aureus strain MRSA USA300
A. ochraceus (DSMZ 824) = settings: DSMZ 824, pH 7
human erythrocytes = settings: pH 7.4
[9] = tested on: N87 (human gastric cell line); settings: 48 h

| SMILES | IC50 [1] | IC50 [2] | IC50 [3] | IC50 [4] | percentage of membrane permeabilization at 100 µM, 120 min (C. perfringens [5]) | percentage of permeabilization at four times the MIC (C. perfringens [5]) | Known/possible target (C. perfringens [6]) | Observed Morphology (C. perfringens [6]) | MIC, B. subtilis NR [7] | MIC, S. aureus MRSA [8] | MIC, A. ochraceus (A. ochraceus (DSMZ 824)) | HC50 (dose causing 50% hemolysis), Erythrocytes (human erythrocytes) | IC50 [9] |
| --- | --- | --- | --- | --- | --- | --- | --- | --- | --- | --- | --- | --- | --- |
| CC[C@H](C)[C@H]1C(=O)O[C@H](C(C)C)C(=O)N(C)[C@@H]([C@@H](C)CC)C(=O)O[C@H](C(C)C)C(=O)N(C)[C@@H]([C@@H](C)CC)C(=O)O[C@H](C(C)C)C(=O)N1C [ENN A] | 5.7 ± 1.2 µM | 1.1 ± 0.2 µM | 3 ± 0.7 µM | 2.8 ± 0.6 µM | 37.1 ± 6.7% | 7.2 ± 2.5% | RNA biosynthesis | • Some cell elongation • DNA condensed in one filament crossing the cells | 6.25 to 12.5 µM | 6.25 to 12.5 µM | >100 µM | 68.7 µM | 0.01 ± 0.01 µM |
| CC(C)[C@H]1C(=O)O[C@H](C(C)C)C(=O)N(C)[C@@H](C(C)C)C(=O)O[C@H](C(C)C)C(=O)N(C)[C@@H](C(C)C)C(=O)O[C@H](C(C)C)C(=O)N1C [ENN B] | 43.7 ± 7.7 µM | 4.6 ± 1.3 µM | 3.4 ± 0.7 µM | 17.3 ± 3.3 µM | 19.6 ± 7.9% | – | Protein biosynthesis | • Some cell elongation (1.5–2 times compared to control) • DNA condensed in 1–4 circles per cells | >100 µM | >100 µM | >100 µM | 534.5 µM | 1.7 ± 0.1 µM |
| CC[C@H](C)[C@H]1C(=O)O[C@H](C(C)C)C(=O)N(C)[C@@H]([C@@H](C)CC)C(=O)O[C@H](C(C)C)C(=O)N(C)[C@@H](C(C)C)C(=O)O[C@H](C(C)C)C(=O)N1C [ENN A1] | 6.4 ± 1.5 µM | 2.7 ± 0.5 µM | 5.6 ± 1.1 µM | 4.6 ± 0.9 µM | – | – | RNA biosynthesis | • No cell elongation • DNA condensed in one filament crossing the cells | 25 µM (≈ 16.7 µg/mL) | 12.5 to 25 µM | >100 µM | 162.7 ± 22.8 µM | 0.003 ± 0.002 µM |
| CC[C@H](C)[C@H]1C(=O)O[C@H](C(C)C)C(=O)N(C)[C@@H](C(C)C)C(=O)O[C@H](C(C)C)C(=O)N(C)[C@@H](C(C)C)C(=O)O[C@H](C(C)C)C(=O)N1C [ENN B1] | 12.7 ± 2.8 µM | 3.1 ± 0.5 µM | 5.6 ± 1.4 µM | 7 ± 1.1 µM | – | – | Protein biosynthesis | • Some cell elongation (1.5–2 times compared to control) • DNA condensed in 1–4 circles per cells | 50 µM (≈ 32.7 µg/mL) | 25 µM (≈ 16.3 µg/mL) | >100 µM | 356.4 ± 59.3 µM | 0.008 ± 0.008 µM |
